Results reported in patent US20180235221A1 (priority 2015, published 2018).
Like-named read-outs stand apart in the source and are kept apart here.

Tested on: Qol resistant Pyricularia oryzae isolate (1328)
Format: cell-based
Conditions: single active compound, MTP, 405 nm, 7 days after inoculation

## CNC(=O)C(=N/OC)/C(C)=C\COc1ccn(-c2ccc(Cl)cc2)n1 [Compound I-1, (Z,2E)-5-[1-(4-chlorophenyl)pyrazol-3-yl]oxy-2-methoxyimino-N,3-dimethyl-pent-3-enamide]
0.063 ppm
  Observed efficacy: 1%
0.25 ppm
  Observed efficacy: 65%

## CNC(=O)C(=N/OC)/C(C)=C\COc1ccn(-c2ccc(Cl)cc2Cl)n1 [Compound I-3, (Z,2E)-5-[1-(2,4-dichlorophenyl)pyrazol-3-yl]oxy-2-methoxyimino-N,3-dimethyl-pent-3-en-amide]
0.063 ppm
  Observed efficacy: 2%
0.25 ppm
  Observed efficacy: 54%

## Cn1nnn(-c2cccc(Cl)c2COc2ccn(-c3ccc(Cl)cc3)n2)c1=O [II-1, 1-[3-chloro-2[[1-(4-chlorophenyl)-1H-pyrazol-3-yl]oxymethyl]phenyl]-4-methyl-tetrazol-5-one]
0.016 ppm
  Observed efficacy: 0%

## Cn1nnn(-c2cccc(Br)c2COc2ccn(-c3ccc(Cl)cc3)n2)c1=O [II-2, 1-[3-bromo-2-[[1-(4-chlorophenyl)pyrazol-3-yl]oxymethyl]phenyl]-4-methyl-tetrazol-5-one]
0.016 ppm
  Observed efficacy: 2%

## Cc1cccc(-n2nnn(C)c2=O)c1COc1ccn(-c2ccc(Cl)cc2)n1 [II-3, 1-[2-[[1-(4-chlorophenyl)pyrazol-3-yl]oxymethyl]-3-methyl-phenyl]-4-methyl-tetrazol-5-one]
0.016 ppm
  Observed efficacy: 44%

## Cn1nnn(-c2cccc(F)c2COc2ccn(-c3ccc(Cl)cc3)n2)c1=O [II-4, 1-[2-[[1-(4-chlorophenyl)pyrazol-3-yl]oxymethyl]-3-fluoro-phenyl]-4-methyl-tetrazol-5-one]
0.063 ppm
  Observed efficacy: 1%

## Cn1nnn(-c2cccc(F)c2COc2ccn(-c3ccc(Cl)cc3Cl)n2)c1=O [II-5, 1-[2-[[1-(2,4-dichlorophenyl)pyrazol-3-yl]oxymethyl]-3-fluoro-phenyl]-4-methyl-tetrazol-5-one]
0.25 ppm
  Observed efficacy: 44%

## CC(=NOCc1c(C)cccc1-n1nnn(C)c1=O)c1cccc(C(F)(F)F)c1 [II-11, -methyl-4-[3-methyl-2-[[1-[3-(trifluoromethyl)-phenyl]-ethylideneamino]oxymethyl]phenyl]tetrazol-5-one]
0.063 ppm
  Observed efficacy: 2%
